According to PubChem BioAssay AID624258 (Broad Institute, 2012):
Where “and” joins values, the source holds several entries; their conditions need not be identical. Equal values may be shown once. Calls of active or inactive are those of the source. How the calls were made is not given here.

test: SKN7 mediated toxicity in Saccharomyces cerevisiae, growth rescue counterscreen, dose confirmation (AID 624258);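 further: growth read after three days of incubation at 30 °C; 0% = median of neutral control wells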; details: S. cerevisiae SKN7-toxicity growth rescue, plate reader; at 2.1 µM (top of the series)

SMILES | growth rescue activity
CCc1ccc(C(C)NC(=S)NC2CCCCC2)cc1 (stereo unspecified) | -19.4% (inactive)
O=S(=O)(Nc1ccccc1)c1ccc(Oc2ncc(C(F)(F)F)cc2Cl)cc1 | -15.3% (inactive)

same assay, conditions: S. cerevisiae SKN7-toxicity growth rescue, plate reader; at 6.8 µM (top of the series)

SMILES | growth rescue activity
Cc1ccc2c(c1C)-c1c(ccc(C)c1C)C(=O)C2=O | -4.89% (inactive)
O=C(Nc1ccc(Cl)cc1)NC1CCCCC1Cc1ccco1 (stereo unspecified) | 76.3% (inactive)
COc1cc2c(cc1OC)C(C)N(C(=O)c1cccc([N+](=O)[O-])c1)CC2 (stereo unspecified) | -17.8% (inactive)

same assay, conditions: S. cerevisiae SKN7-toxicity growth rescue, plate reader; at 19.5 µM (top of the series)

SMILES | growth rescue activity
COc1cc(NS(=O)(=O)c2ccc(C)cc2)c2ncccc2c1 | -51.9% (inactive)
Cc1ccc(-c2c3c(nc4sc(C(N)=O)c(N)c24)CCCC3)o1 | -35.3% (inactive)
Cc1cc(SC#N)cc(C)c1NC(=O)CCl | -87% (inactive)
COc1cc2c(cc1OC)C(C)N(C(=O)C1COc3ccccc3O1)CC2 (stereo unspecified) | 14.6% (inactive)
Cc1cc(C)c2sc(NNC(=O)c3ccc(S(=O)(=O)N4CCc5ccccc5C4)cc3)nc2c1 | -31.4% (inactive)
O=C1CC(c2cccc([N+](=O)[O-])c2)c2ccc3ccccc3c2N1 (stereo unspecified) | 47.4% (inactive)
Cc1ccccc1Oc1nc(-c2ccccn2)nc2ccccc12 | -58.6% (inactive)
Cc1nc2ccc(C(=O)NCc3ccc4c(c3)OCO4)cc2s1 | -2.94% (inactive)
C[C@]12CC[C@H](O)CC1=CCC1C2CC[C@@]2(C)C1CC[C@@H]2NC(=O)[C@@H](N)Cc1cnc[nH]1 (stereo partly specified) | 26.3% (inactive)
Cc1ccc(Sc2ccc(NC(=O)CCl)cc2)cc1C | -34.2% (inactive)
COCCn1c(=NC(=O)CSC(C)=O)sc2cc(F)ccc21 | 56.5% (inactive)
Nc1cc2c3ccccc3ccc2c2ccccc12 | -51.9% (inactive)
CSc1nc(-c2ccccc2F)c(C#N)c(=O)n1C | 47.9% (inactive)
CCOc1ccc(N/N=C(/C#N)C(N)=O)cc1 | -49.6% (inactive)
Oc1c(C(Nc2ccccn2)c2ccccn2)ccc2cccnc12 (stereo unspecified) | -61.4% (inactive)
CCCCCCCc1ccc(-c2ccc(O)cc2)nc1 | -79.8% (inactive)
CC1CC(C)(O)CC(C(O)CC2CC(=O)NC(=O)C2)C1=O (stereo unspecified) | 2.36% (inactive)
COc1ccc(-c2oc3ccccc3c2C#Cc2cncn2C)cc1 | -49.1% (inactive)
Cc1cccc2sc(NNC(=O)c3ccc(S(=O)(=O)N4CCCC(C)C4)cc3)nc12 (stereo unspecified) | -51.9% (inactive)
O=C(N/N=C/c1cc(Cl)cc([N+](=O)[O-])c1O)c1ccccc1NS(=O)(=O)c1cccs1 | -5.73% (inactive)
C[n+]1c2cc(N)ccc2cc2ccc(N)cc21 | -24.4% (inactive) and -10% (inactive)
O=[N+]([O-])c1ccc(Sc2cccc[n+]2[O-])c2nonc12 | -4.98% (inactive)
CC(C)(C)c1ccc(C(=O)NC(=S)NNC(=O)c2cccs2)cc1 | -72.5% (inactive)

SMILES | growth rescue activity
O=C(c1ccc(-c2ccccc2)cc1)C1CCCN(C(=O)c2cncs2)C1 (stereo unspecified) | -59.8% (inactive)
CCOC(=O)c1ccc(-c2ccc(C3Nc4ccccc4C(=O)N3O)o2)cc1 (stereo unspecified) | -4.76% (inactive)
O=[N+]([O-])c1cccc(C=NNc2ccc3ccccc3n2)c1O | -79.2% (inactive)
O=C1C(Cl)=C(NCc2cccnc2)C(=O)c2ccccc21 | 26.7% (inactive)
C=CCOC(Cn1ccnc1)c1ccc(Cl)cc1Cl (stereo unspecified) | -40.8% (inactive)
CCOC(=O)CN1C(=O)C2Cc3ccccc3CN2C1=S (stereo unspecified) | 41.4% (inactive)
CCCCCCCCCCSc1n[nH]c(N)n1 | -93.1% (inactive)
Cc1ccccc1C(=O)NNC(=S)NC(=O)c1ccc(Cl)cc1Cl | -23.2% (inactive)
Cc1cc(N2CCN(c3ccccc3)CC2)nc(-c2ccccc2O)n1 | -42.6% (inactive)
Cc1cc2nc(-c3ccc4c(c3)CCC4)ccn2n1 | -10.6% (inactive)
CCC(C)Sc1cccc(-c2nc3ccccn3c2NCc2ccccc2)c1 (stereo unspecified) | -90.6% (inactive)
COc1cnc(-c2ccccn2)nc1Sc1ccccc1 | -65.3% (inactive)
COc1ccccc1-c1sc2cc3c(cc2c1C#Cc1cncn1C)OCO3 | -72% (inactive)
CCc1ccc(OCc2n[nH]c(=S)n2Cc2ccccc2)cc1 | -30.5% (inactive)
CCCOc1ccc(CSCCNC(=S)Nc2ccccc2)cc1 | 22% (inactive)
CN(C)c1ccc(C=c2c3cc(O)ccc3n3c2cc(-c2ccccc2)[n+]3C)cc1 | -34.8% (inactive)
Oc1cccc2ccc(Nc3ccccn3)nc12 | 6.81% (inactive)
Cn1cc(SCC(=O)Nc2nc3ccccc3s2)c2ccccc21 | -62.4% (inactive)
CCCCCCSc1ccc(-c2nc3ccccn3c2NCCCC)cc1 | -84.3% (inactive)
CCCCn1c(=O)c(C(=O)NCc2ccncc2)c(O)c2ccccc21 | 33% (inactive)
CCN(CC)C(=O)C1CCCc2c1[nH]c1ccc(Cl)cc21 (stereo unspecified) | -45% (inactive)
Cc1ccc(S(=O)(=O)Nc2ccc(O)c3cccnc23)cc1 | -0.63% (inactive)
FC(F)(F)c1cccc(N2CCN(C(=S)NC3CCCCC3)CC2)c1 | 64.1% (inactive)

SMILES | growth rescue activity
Clc1ccc(CSC(Cn2ccnc2)c2ccc(Cl)cc2Cl)cc1 (stereo unspecified) | -73% (inactive)
O=C(N/N=C/c1cc(Br)cc(Cl)c1O)c1ccc2c(c1)OCO2 | -36.6% (inactive)
COc1ccc(O)c(C(=O)CC(=O)c2ccccc2C)c1 | -60.2% (inactive)
O=S(=O)(NCCc1csc(-c2cccnc2)n1)c1ccc(Cl)s1 | -65.2% (inactive)
Cc1cccc(N=Cc2[nH]c3ccc(Br)c(Cl)c3c2O)c1 | -14.7% (inactive)
CN(C)S(=O)(=O)Oc1cccc(C(=O)Nc2ccc(Cl)cc2)c1 | -19.4% (inactive)
CC[n+]1c(/C=C/C=C/c2ccc(N(C)C)cc2)sc2ccccc21 | -38.5% (inactive)
CCO/C=C1/C(=O)N(Cc2ccccc2)C(=O)c2ccccc21 | 2.35% (inactive)
Cc1cc(O)c(-c2cc(O)c(C)cc2O)cc1O | -8.5% (inactive)
Cn1c(-c2ccccc2)cnc1NCc1ccc(-c2ccccc2)cc1 | -67.3% (inactive)
CC1=CC(C)(C)N(S(=O)(=O)c2ccc(C)cc2)c2ccc(C)cc21 | -55.9% (inactive)
COc1cccc2c1C(=O)c1c(O)c3c(c(O)c1C2=O)CC(O)(C(C)=NNC(=O)c1ccc(Cl)c(Cl)c1)CC3OC1CC(N)C(O)C(C)O1 (stereo unspecified) | 23.8% (inactive)
O/N=C(\c1ccc(Cl)cc1)c1cc2ccccc2o1 | 3.39% (inactive)
Cc1ccc(Cl)cc1NC1=C/C(=N\S(=O)(=O)c2cccs2)c2ccccc2C1=O | -24.9% (inactive)
CCCCC(c1nnnn1Cc1ccco1)N1CCN(c2nc3ccccc3s2)CC1 (stereo unspecified) | -9.41% (inactive)
CC(=O)/C=C(\C)Nc1ccccc1O | -6.16% (inactive)
CCc1cc(C(=O)Nc2nc(-c3ccccn3)cs2)sc1C | -67.6% (inactive)
Oc1ccccc1-c1cc(-c2ccc3c(c2)OCCO3)n[nH]1 | 2.6% (inactive)
CCC(CC)C(=O)N1CCN(c2cccc(C)c2C)CC1 | -12.1% (inactive)
O=C(NCCCNc1ccc(C(F)(F)F)cc1[N+](=O)[O-])c1ccc(Cl)cc1 | -14.8% (inactive)
CCCSC(=S)c1c(C)[nH]n(-c2ccccc2)c1=O | -53% (inactive)
O=C(c1cccs1)c1no[n+]([O-])c1C(=O)c1cccs1 | -87.1% (inactive)
Nc1nonc1C(=O)NCCN=Cc1cc(Cc2ccccc2)cc(Br)c1O | -81% (inactive)

SMILES | growth rescue activity
CC(C)C(=O)NC(c1ccco1)c1ccc2cccnc2c1O (stereo unspecified) | -67.3% (inactive)
Cc1cc(C(F)(F)F)n2[nH]c(=O)c(N=Nc3ccccc3)c2n1 | -58.6% (inactive)
N#Cc1c(-c2ccccc2)nc2n(c1=O)CCS2 | 27.6% (inactive)
CCOC(=O)c1c2c(n(-c3ccc(OC)cc3)c1C)C(=O)C(=O)c1ccccc1-2 | -68% (inactive)
C[C@]12CCC(=O)C=C1CCC1C2CC[C@@]2(C)C1CC[C@]2(C)O (stereo partly specified) | -16.5% (inactive)
O=C(CN1CCN(c2ncc(C(F)(F)F)cc2Cl)CC1)NCCNc1ncc(C(F)(F)F)cc1Cl | -35.8% (inactive)
Oc1c(Br)cc(-c2ccccc2)cc1Br | -84.6% (inactive)
O=[N+]([O-])c1ccc(S(=O)(=O)c2ccccc2)nc1 | 10.3% (inactive)
Cc1cccc(C)c1N1C(=O)C2ON(c3ccccc3)C(c3ccncc3)C2C1=O (stereo unspecified) | -56.4% (inactive)
Cc1nc(Sc2ccccc2)c(C#N)c(C)c1[N+](=O)[O-] | 147% (inactive)
Clc1ccc(-c2n[nH]c3c2CCC3)cc1Cl | -54.5% (inactive)
COc1cccc(C(=O)Nc2sc(C(C)C)cc2C(N)=O)c1OC | 93.8% (inactive)
N#Cc1c(-c2ccc(Cl)cc2)nc2n(c1=O)CCCS2 | 35.4% (inactive)
Oc1ccc(Br)cc1/C=N/Nc1ccccn1 | -73.9% (inactive)
CC(C)CSc1n[nH]c(=S)s1 | -51% (inactive)
O=C(Nc1ccc(C2=NCCN2)cc1)c1ccc(C(=O)Nc2ccc(C3=NCCN3)cc2)c(Cl)c1 | -69% (inactive)
Cc1cccc(Oc2nc(-c3ccccn3)nc3ccccc23)c1 | -67.8% (inactive)
C(=C1c2ccccc2-c2ccccc21)c1ccncc1 | -46.7% (inactive)
CC(=O)NC(=S)NNC(=O)C(c1ccccc1)c1ccccc1 | -30.2% (inactive)
COc1ccc(OCC(=O)NNC(=S)NC(=O)C2CCCCC2)cc1 | -64.8% (inactive)
CNc1cc(CSC)nc(SCc2ccc(Cl)cc2Cl)n1 | -57.8% (inactive)
O=C(CCl)NCCCCCCCCCNC(=O)CCl | 8.47% (inactive)
